Measurements taken from the NIST ThermoML archive (doi:10.1016/j.tca.2004.11.015).

Assay: xn = mol fraction of the nth substance listed
Settings: 101.33 kPa, Liquid, Vibrating tube method

NCCO [2-aminoethan-1-ol] + CO
mass density [kg/m3]
Settings	333.15 K	338.15 K	343.15 K	348.15 K	353.15 K
x1 = 0.05	–	769.67	764.72	759.71	754.62
x1 = 0.1	–	789.76	784.91	780	775.02
x1 = 0.15	–	808.15	803.39	798.56	793.68
x1 = 0.2002	–	825.28	820.58	815.83	811.02
x1 = 0.2501	–	840.8	836.17	831.49	826.76
x1 = 0.2974	–	854.6	850	845.36	840.69
x1 = 0.3502	–	868.88	864.35	859.77	855.14
x1 = 0.4001	–	881.08	876.6	872.07	867.5
x1 = 0.4427	–	890.99	886.55	882.06	877.53
x1 = 0.4502	–	892.86	888.42	883.94	879.42
x1 = 0.5002	–	903.44	899.04	894.6	890.11
x1 = 0.5501	–	913.38	909.01	904.62	900.18
x1 = 0.6001	–	922.8	918.47	914.1	909.7
x1 = 0.6501	–	931.59	927.29	922.96	918.6
x1 = 0.7005	–	940.08	935.81	931.52	927.19
x1 = 0.7479	–	947.22	942.98	938.72	934.42
x1 = 0.8002	–	955.24	951.03	946.8	942.54
x1 = 0.8502	–	961.84	957.66	953.46	949.23
x1 = 0.8967	–	968.16	964.01	959.83	955.62
x1 = 0.9501	978.67	974.57	970.45	966.3	962.12
